The values that follow are results of earlier work, collected in publication PMC11915028 (ACS Pharmacology & Translational Science, 2025).

In the series the target is PSMA expression in PCa lesions (Homo sapiens, UniProt Q04609). From the text:
High tumor-to-background ratios are required for the detection of small cancer/metastatic lesions. The required ratio is ∼10 for the detection of lesions with about 1 cm diameter, but for the detection of smaller lesions (0.3 cm), the required ratio should be almost 90.[30]

Sequence of PSMA expression in PCa lesions (Q04609 whole entry): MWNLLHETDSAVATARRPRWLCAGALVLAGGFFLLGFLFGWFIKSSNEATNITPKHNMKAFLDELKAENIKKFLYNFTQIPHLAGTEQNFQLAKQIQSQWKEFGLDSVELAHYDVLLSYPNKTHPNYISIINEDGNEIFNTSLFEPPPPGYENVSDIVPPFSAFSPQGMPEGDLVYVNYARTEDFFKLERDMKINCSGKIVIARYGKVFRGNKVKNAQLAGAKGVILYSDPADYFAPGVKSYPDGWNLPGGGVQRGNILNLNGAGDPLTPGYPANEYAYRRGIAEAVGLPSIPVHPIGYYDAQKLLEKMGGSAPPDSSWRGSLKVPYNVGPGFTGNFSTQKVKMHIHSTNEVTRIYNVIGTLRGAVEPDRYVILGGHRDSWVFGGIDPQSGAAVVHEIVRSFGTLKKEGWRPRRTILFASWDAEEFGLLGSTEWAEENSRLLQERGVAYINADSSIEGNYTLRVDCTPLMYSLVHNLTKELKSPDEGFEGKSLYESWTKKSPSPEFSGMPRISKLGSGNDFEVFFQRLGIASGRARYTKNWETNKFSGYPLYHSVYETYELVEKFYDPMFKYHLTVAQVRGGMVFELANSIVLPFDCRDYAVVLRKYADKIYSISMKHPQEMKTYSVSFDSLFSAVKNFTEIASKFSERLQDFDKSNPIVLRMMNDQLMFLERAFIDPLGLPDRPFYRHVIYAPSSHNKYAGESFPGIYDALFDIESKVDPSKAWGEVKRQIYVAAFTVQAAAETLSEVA

Turning to `O=C([O-])CN(CCN(CC(=O)[O-])Cc1cc(CCC(=O)NCCCCCC(=O)NCCCC[C@H](NC(=O)N[C@@H](CCC(=O)O)C(=O)O)C(=O)O)ccc1[O-])Cc1cc(CCC(=O)O)ccc1[O-].[68Ga+3].[OH3+]` [[^68Ga]Ga-PSMA-11], the “SUVmax, local recurrences of PCa” value (PET, three hours post-administration) was 3–39. Moreover, for the setting “human, in vivo”, the “SUVmax, normal prostate gland tissue” value is 2−4.
